Numbered stars: 1 amine (or outer) side, 2 acyl side, 3 side chain; on linkers, the order of the positions; unused ones are H or OH. Bridge positions count the residues as written; N and C are the ends. Square brackets hold non-standard residues; d marks the D form. Peptide text beside a SMILES is read from it. * marks the point of attachment. X2 = O=C([C@@H](Cc1ccccc1)N(CC(CO)(CO)CO)[*:1])[*:2]; 2Nal = N[C@@H](Cc1ccc2ccccc2c1)C(=O)O; X3 = O=C(CN(C(CO)(CO)CO)[*:1])[*:2]; X4 = O=C(CN1CCN(CCO)CC1)*
What was measured:
[1] = test system: AR42J rat pancreas tumor cells; assay: Antiproliferative assay on AR42J cells; type: cell-based; settings: Concentration 100 nM, AR42J Rat Pancreas Tumor Cells after 8 days
Description: The purified somatostatin analogs described above were also tested for activity against rapidly proliferating cells.
^1 Concentration 100 nM, AR42J Rat Pancreas Tumor Cells after 8 days.

somatostatin receptor = target: T1, somatostatin receptor (Rattus norvegicus, UniProt P30680); assay: Somatostatin binding assay: in vitro inhibition of binding of [125I-Tyr11]SRIF-14 to rat AR42J pancreas membranes; settings: inhibition of [125I-Tyr11]SRIF-14 binding, read-out: IC50, in vitro binding affinity
T1 construct: SRIF-14 to rat AR42J pancreas membranes; endogenous in cells; host or cells: rat AR42J pancreatic cells (membrane preparation)
T1 sequence (P30680 whole entry): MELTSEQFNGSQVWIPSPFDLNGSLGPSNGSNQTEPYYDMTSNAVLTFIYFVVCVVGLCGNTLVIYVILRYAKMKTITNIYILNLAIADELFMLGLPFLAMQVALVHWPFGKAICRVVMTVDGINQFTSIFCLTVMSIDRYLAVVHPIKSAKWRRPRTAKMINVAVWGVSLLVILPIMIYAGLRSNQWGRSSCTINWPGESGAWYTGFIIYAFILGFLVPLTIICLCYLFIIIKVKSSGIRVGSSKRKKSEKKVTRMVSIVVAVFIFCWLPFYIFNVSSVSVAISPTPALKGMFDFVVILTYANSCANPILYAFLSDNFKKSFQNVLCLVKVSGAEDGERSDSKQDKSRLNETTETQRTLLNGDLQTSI

[2] = test system: stimulated growth hormone release; assay: Growth Hormone (GH) Inhibition Assay in rats (D-Ala2-GRF stimulated GH); type: in vivo, male Sprague Dawley rats; settings: s.c.; for Inhibition of stimulated growth hormone release (percentile control): 25 μg/kg
Description: Groups of five male Sprague Dawley rats (each having a weight between 250-300 g) were injected s.c. with a somatostatin derivative or saline. Thirty minutes prior to the selected post-drug time periods shown in table II (2 hours, 4 hours, 6 hours, 8 hours), rats were anesthetized with Nembutal i.p. (50 mg/kg). Fifteen minutes following anesthesia, an aliquot of blood was withdrawn by cardiac puncture over heparin to measure basal GH. Additionally, a s.c. injection of D-Ala^2 -GRF (10 μg/kg) was given. Fifteen minutes later, blood was withdrawn to quantitate the stimulated GH, which was measured in plasma using a radioimmunoassay supplied by NIADDKD. The percentage of GH inhibition was calculated from differences obtained between basal and stimulated GH values.
The efficacy of D-Phe-c[Cys-Tyr-D-Trp-Lys-Thr-Cys]-Nal-NH2 (SEQ ID NO. 113) (BIM-23060) in inhibiting growth hormone in rats is compared with other somatostatin derivatives (BIM-23167, BIM-23179, and BIM-23181) of the invention.
Additional experiments were conducted on D-Phe-c[Cys-Tyr-D-Trp-Lys-Abu-Cys]-Thr-NH2, (SEQ ID NO. 112) a somatostatin analog, and BIM-23190, BIM-23195 and BIM-23197, to determine the ED50 (i.e., the concentration of each compound required to inhibit fifty percent of growth hormone release after a specified time) of the respective compound. Experiments were conducted at a dose range of between 25 μg/kg and 0.25 μg/kg.

`CC(=O)OCC(COC(C)=O)(COC(C)=O)NC(=O)CCC(=O)N[C@H](Cc1ccc2ccccc2c1)C(=O)N[C@H]1CSSC[C@@H](C(=O)N[C@H](C(N)=O)[C@@H](C)O)NC(=O)[C@H](C(C)C)NC(=O)[C@H](CCCCN)NC(=O)[C@@H](Cc2c[nH]c3ccccc23)NC(=O)[C@H](Cc2ccc(O)cc2)NC1=O` [BIM-23107, (AcO-CH2)3 -C-NH-CO-(CH2)2 -CO-D-Nal-c[Cys-Tyr-D-Trp-Lys-Val-Cys]-Thr-NH2] was tested, and the “Cell growth (percent of control)” value [1] was 67.5% of control.
In the case of `C[C@@H](O)[C@@H]1NC(=O)[C@H](CCCCN)NC(=O)[C@@H](Cc2c[nH]c3ccccc23)NC(=O)[C@H](Cc2ccc(O)cc2)NC(=O)[C@@H](NC(=O)[C@@H](Cc2ccccc2)NC(=O)CNC(CO)(CO)CO)CSSC[C@@H](C(=O)N[C@@H](Cc2ccc3ccccc3c2)C(N)=O)NC1=O` [BIM-23179, (HO-CH2)3 -C-NH-CH2 -CO-D-Phe-c[Cys-Tyr-D-Trp-Lys-Thr-Cys]-Nal-NH2] (H-[X3][dF]CY[dW]KTC[2Nal]-NH2; disulfide 3-8), the IC50 (somatostatin receptor) is reported as 120 pM, the “Inhibition of stimulated growth hormone release (percentile control)” value (from here on “Inhibition … (percentile control)”) ([2]; 2 Hours) is reported as 92.79 percentile control and the “Inhibition … (percentile control)” value ([2]; 4 Hours) is reported as 63.85 percentile control. The “Inhibition … (percentile control)” value ([2]; 6 Hours) was 67.78 percentile control and the “Inhibition … (percentile control)” value ([2]; 8 Hours) was 68.26 percentile control.
With `CC(C)[C@@H]1NC(=O)[C@H](CCCCN)NC(=O)[C@@H](Cc2c[nH]c3ccccc23)NC(=O)[C@H](Cc2ccc(O)cc2)NC(=O)[C@@H](NC(=O)[C@@H](Cc2ccc3ccccc3c2)NC(=O)CCC(=O)NC(CO)(CO)CO)CSSC[C@@H](C(=O)N[C@H](C(N)=O)[C@@H](C)O)NC1=O` [BIM-23158, (HO-CH2)3 -C-NH-CO-(CH2)2 -CO-D-Nal-c[Cys-Tyr-D-Trp-Lys-Val-Cys]-Thr-NH2] the IC50 (somatostatin receptor) was 330 pM.
In the case of `CSCC[C@H](NC(=O)[C@H](C)NC(=O)[C@@H]1CCCN1C(=O)[C@H](CC(N)=O)NC(=O)[C@H](CO)NC(=O)[C@H](CC(N)=O)NC(=O)[C@H](C)NC(=O)[C@@H](N)CO)C(=O)N[C@@H](C)C(=O)N1CCC[C@H]1C(=O)N[C@@H](CCCNC(=N)N)C(=O)N[C@@H](CCC(=O)O)C(=O)N[C@@H](CCCNC(=N)N)C(=O)N[C@@H](CCCCN)C(=O)N[C@@H](C)C(=O)NCC(=O)N[C@H]1CSSC[C@@H](C(=O)O)NC(=O)[C@H](CO)NC(=O)[C@H]([C@@H](C)O)NC(=O)[C@H](Cc2ccccc2)NC(=O)[C@H]([C@@H](C)O)NC(=O)[C@H](CCCCN)NC(=O)[C@H](Cc2c[nH]c3ccccc23)NC(=O)[C@H](Cc2ccccc2)NC(=O)[C@H](Cc2ccccc2)NC(=O)[C@H](CC(N)=O)NC(=O)[C@H](CCCCN)NC1=O` [SRIF-28, reference compound], the “Cell growth (percent of control)” value [1] is reported as 98.0% of control.
In the case of `CC[C@@H]1NC(=O)[C@H](CCCCN)NC(=O)[C@@H](Cc2c[nH]c3ccccc23)NC(=O)[C@H](Cc2ccc(O)cc2)NC(=O)[C@@H](NC(=O)[C@H](N)Cc2ccccc2)CSSC[C@@H](C(=O)N[C@H](C(N)=O)[C@@H](C)O)NC1=O` [BIM-23023, D-Phe-c[Cys-Tyr-D-Trp-Lys-Abu-Cys]-Thr-NH2, reference compound], the “ED50, inhibition of stimulated growth hormone release” value (“ED50, inhibition” below) ([2]; 2 Hours) is reported as 0.48 µg/kg, the “ED50, inhibition” value ([2]; 4 Hours) is reported as 1.11 µg/kg and the “ED50, inhibition” value ([2]; 6 Hours) is reported as 2.26 µg/kg. For the same compound, the “ED50, inhibition” value ([2]; 8 Hours) was 4.32 µg/kg.
With `C[C@@H](O)[C@@H]1NC(=O)[C@H](CCCCN)NC(=O)[C@@H](Cc2c[nH]c3ccccc23)NC(=O)[C@H](Cc2ccc(O)cc2)NC(=O)[C@@H](NC(=O)[C@@H](Cc2ccccc2)NC(=O)CN2CCN(CCO)CC2)CSSC[C@@H](C(=O)N[C@@H](Cc2ccc3ccccc3c2)C(N)=O)NC1=O` [BIM-23191] (X4-[dF]CY[dW]KTC[2Nal]-NH2; disulfide 2-7) the IC50 (somatostatin receptor) was 80 pM.
Compound `CC[C@@H]1NC(=O)[C@H](CCCCN)NC(=O)[C@@H](Cc2c[nH]c3ccccc23)NC(=O)[C@H](Cc2ccc(O)cc2)NC(=O)[C@@H](NC(=O)[C@@H](Cc2ccccc2)NS(=O)(=O)CCN2CCN(CCO)CC2)CSSC[C@@H](C(=O)N[C@H](C(N)=O)[C@@H](C)O)NC1=O` [BIM-23197] has an IC50 (somatostatin receptor) of 290 pM.
With `CC[C@@H]1NC(=O)[C@H](CCCCN)NC(=O)[C@@H](Cc2c[nH]c3ccccc23)NC(=O)[C@H](Cc2ccc(O)cc2)NC(=O)[C@@H](NC(=O)[C@@H](Cc2ccccc2)NC(=O)CN2CCN(CCOCCO)CC2)CSSC[C@@H](C(=O)N[C@H](C(N)=O)[C@@H](C)O)NC1=O` [BIM-23202] the IC50 (somatostatin receptor) was 180 pM.
Compound `CC[C@@H]1NC(=O)[C@H](CCCCN)NC(=O)[C@@H](Cc2c[nH]c3ccccc23)NC(=O)[C@H](Cc2ccc(O)cc2)NC(=O)[C@@H](NC(=O)[C@@H](Cc2ccccc2)NC(=O)CCC(=O)NC(CO)(CO)CO)CSSC[C@@H](C(=O)N[C@H](C(N)=O)[C@@H](C)O)NC1=O` [BIM-23173, (HO-CH2)3 -C-NH-CO-(CH2)2 -CO-D-Phe-c[Cys-Tyr-D-Trp-Lys-Abu-Cys]-Thr-NH2] has an IC50 (somatostatin receptor) of 110 pM.
Compound `CC[C@@H]1NC(=O)[C@H](CCCCN)NC(=O)[C@@H](Cc2c[nH]c3ccccc23)NC(=O)[C@H](Cc2ccc(O)cc2)NC(=O)[C@@H](NC(=O)[C@@H](Cc2ccccc2)NC(=O)CN2CCN(CCO)CC2)CSSC[C@@H](C(=O)N[C@H](C(N)=O)[C@@H](C)O)NC1=O` [BIM-23190] has an IC50 (somatostatin receptor) of 200 pM.
With `CC[C@@H]1NC(=O)[C@H](CCCCN)NC(=O)[C@@H](Cc2c[nH]c3ccccc23)NC(=O)[C@H](Cc2ccc(O)cc2)NC(=O)[C@@H](NC(=O)[C@@H](Cc2ccccc2)NS(=O)(=O)CCNC(CO)(CO)CO)CSSC[C@@H](C(=O)N[C@H](C(N)=O)[C@@H](C)O)NC1=O` [BIM-23196] the IC50 (somatostatin receptor) was 90 pM.
`CC[C@@H]1NC(=O)[C@H](CCCCN)NC(=O)[C@@H](Cc2c[nH]c3ccccc23)NC(=O)[C@H](Cc2ccc(O)cc2)NC(=O)[C@@H](NC(=O)[C@@H](Cc2ccccc2)NCC(CO)(CO)CO)CSSC[C@@H](C(=O)N[C@H](C(N)=O)[C@@H](C)O)NC1=O` [BIM-23195, (Ho-CH2)3 C-CH2 -D-Phe-C[Cys-Tyr-D-Trp-Lys-Abu-Cys]-Thr-NH2] gave an IC50 (somatostatin receptor) of 80 pM.
`C[C@@H](O)[C@@H]1NC(=O)[C@H](CCCCN)NC(=O)[C@@H](Cc2c[nH]c3ccccc23)NC(=O)[C@H](Cc2ccc(O)cc2)NC(=O)[C@@H](NC(=O)[C@@H](Cc2ccccc2)NCC(CO)(CO)CO)CSSC[C@@H](C(=O)N[C@@H](Cc2ccc3ccccc3c2)C(N)=O)NC1=O` [BIM-23201, (HO-CH2)3 -C-CH2 -D-Phe-c[Cys-Tyr-D-Trp-Lys-Thr-Cys]-Nal-NH2] (H-[X2]CY[dW]KTC[2Nal]-NH2; disulfide 2-7) showed an IC50 (somatostatin receptor) of 140 pM.
`CC[C@@H]1NC(=O)[C@H](CCCCN)NC(=O)[C@@H](Cc2c[nH]c3ccccc23)NC(=O)[C@H](Cc2ccc(O)cc2)NC(=O)[C@@H](NC(=O)[C@@H](Cc2ccccc2)NC(=O)CNC(CO)(CO)CO)CSSC[C@@H](C(=O)N[C@H](C(N)=O)[C@@H](C)O)NC1=O` [BIM-23182, (HO-CH2)3 -C-NH-CH2 -CO-D-Phe-c[Cys-Tyr-D-Trp-Lys-Abu-Cys]-Thr-NH2] gave an IC50 (somatostatin receptor) of 120 pM.
In the case of “D-Phe-c[Cys-Tyr-D-Trp-Lys-Thr-Cys]-Nal-NH2 [BIM-23060, reference compound]”, the “Inhibition … (percentile control)” value ([2]; 2 Hours) is reported as 86.39 percentile control, the “Inhibition … (percentile control)” value ([2]; 4 Hours) is reported as 64.96 percentile control and the “Inhibition … (percentile control)” value ([2]; 6 Hours) is reported as 47.62 percentile control. The “Inhibition … (percentile control)” value ([2]; 8 Hours) was 38.15 percentile control.

Source: US5552520A, “Therapeutic peptide derivatives” (Biomeasure, Inc., priority 1994, dated 1996)
